Source: the supplement of paper PMC10307832

These cell lines were tested with C(C(=O)C(=O)O)Br [Bromopyruvate] + Nc1ncn([C@H]2C[C@H](O)[C@@H](CO)O2)c(=O)n1 [Decitabine] (partner 2 µM) (assay: relative viability (nuclei count vs DMSO), 5 days (fraction); higher = more cells survive). Details: first compound 1 µM.
Procedure, shortened: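 One day after seeding in 1536-well plates, lung cancer cell lines were dosed by pin tool. Dosing was either single-drug or a fixed anchor-drug dose plus five library-drug doses (not always all listed) in √10 steps. After 5 days, nuclei were stained in one fix-and-stain step and counted on 4× images, and relative viability is the nuclei count of treated wells over that of vehicle wells, given as the median of duplicate plates.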

Compared with NCI-H522, NCI-H838 is lower in relative viability: 0.604 for the first, 0.485 for the second.

Compared with NCI-H1650, NCI-H2009 is lower in relative viability: 0.448 for the first, 0.352 for the second.

Going from NCI-H1993 to PC-14, the relative viability falls from 0.612 to 0.226.

Going from LCLC-103H to NCI-H596, the relative viability rises from 0.757 to 1.64.

First: EMC-BAC-2
Second: NCI-H2087
The relative viability of the first is higher: 0.918 for the first, 0.307 for the second.

Compared with HCC-366, NCI-H1666 is higher in relative viability: 0.358 for the first, 0.679 for the second.

First: NCI-H647
Second: LK-2
The relative viability of the first is higher: 0.439 for the first, 0.277 for the second.

Going from NCI-H2126 to NCI-H2342, the relative viability rises from 0.625 to 0.746.

Compared with SK-MES-1, H3255 is higher in relative viability: 0.362 for the first, 0.514 for the second.

Compared with COR-L23, COR-L 105 is higher in relative viability: 0.407 for the first, 0.59 for the second.

Compared with LOU-NH91, ChaGo-K-1 is lower in relative viability: 0.868 for the first, 0.554 for the second.

Going from NCI-H2170 to NCI-H3122, the relative viability falls from 0.471 to 0.454.

Compared with HOP-62, HCC-44 is higher in relative viability: 0.217 for the first, 0.987 for the second.

Compared with A549, SW 900 is higher in relative viability: 0.225 for the first, 0.451 for the second.

Going from LU99A to NCI-H1648, the relative viability falls from 0.894 to 0.465.

Compared with NCI-H1395, NCI-H1793 is lower in relative viability: 0.754 for the first, 0.535 for the second.

Going from NCI-H1944 to ABC-1, the relative viability rises from 0.419 to 0.888.

Cell Line NCI-H358 has a relative viability of 0.2.

Same assay, conditions: first compound 3.162 µM

First: NCI-H522
Second: NCI-H838
The relative viability of the first is higher: 0.705 for the first, 0.461 for the second.

Going from NCI-H1650 to NCI-H2009, the relative viability rises from 0.393 to 0.42.

Compared with NCI-H1993, PC-14 is lower in relative viability: 0.609 for the first, 0.229 for the second.

Going from LCLC-103H to NCI-H596, the relative viability rises from 0.764 to 1.11.

First: EMC-BAC-2
Second: NCI-H2087
The relative viability of the first is higher: 1.04 for the first, 0.318 for the second.

First: HCC-366
Second: NCI-H1666
The relative viability of the first is lower: 0.302 for the first, 0.738 for the second.

Compared with NCI-H647, LK-2 is lower in relative viability: 0.362 for the first, 0.232 for the second.

Compared with NCI-H2126, NCI-H2342 is higher in relative viability: 0.603 for the first, 0.682 for the second.

Compared with SK-MES-1, H3255 is higher in relative viability: 0.494 for the first, 0.705 for the second.

First: COR-L23
Second: COR-L 105
The relative viability of the first is lower: 0.404 for the first, 0.674 for the second.

First: LOU-NH91
Second: ChaGo-K-1
The relative viability of the first is higher: 0.79 for the first, 0.525 for the second.

Going from NCI-H2170 to NCI-H3122, the relative viability falls from 0.464 to 0.426.

Going from HOP-62 to HCC-44, the relative viability rises from 0.229 to 0.926.

First: A549
Second: SW 900
The relative viability of the first is lower: 0.271 for the first, 0.485 for the second.

First: LU99A
Second: NCI-H1648
The relative viability of the first is higher: 0.903 for the first, 0.572 for the second.

Compared with NCI-H1395, NCI-H1793 is lower in relative viability: 0.717 for the first, 0.472 for the second.

First: NCI-H1944
Second: NCI-H358
The relative viability of the first is higher: 0.423 for the first, 0.21 for the second.

Same assay, conditions: first compound 10 µM

Compared with NCI-H522, NCI-H838 is lower in relative viability: 0.619 for the first, 0.408 for the second.

Compared with NCI-H1650, NCI-H2009 is lower in relative viability: 0.462 for the first, 0.336 for the second.

First: NCI-H1993
Second: PC-14
The relative viability of the first is higher: 0.628 for the first, 0.204 for the second.

First: LCLC-103H
Second: NCI-H596
The relative viability of the first is lower: 0.797 for the first, 0.974 for the second.

Going from EMC-BAC-2 to NCI-H2087, the relative viability falls from 1 to 0.248.

With HCC-366 the relative viability was 0.43.
